In ChEMBL document CHEMBL4627394, “A Grand Challenge. 3. Unbiased Phenotypic Function of Metabolites from Australia Plants Gloriosa superba and Alangium villosum against Parkinson's Disease” (J Nat Prod, 2020):
Active and inactive are the calls of the source. No cut-off for these calls is given here.

Experiments:
[1] = Cytotoxicity against Parkinson's disease patient derived human ONS cells assessed as effect on cell morphology parameters at 10 uM after 24 hrs by DAPI staining based fluorescence assay
[2] = Cytotoxicity against Parkinson's disease patient derived human ONS cells assessed as effect on nucleus morphology parameters at 10 uM after 24 hrs by DAPI staining based fluorescence assay
Homo sapiens = organism: Homo sapiens; test: Effect on early endosome parameters in Parkinson's disease patient derived human ONS cells at 10 uM after 24 hrs by EEA1 staining based fluorescence assay; format: functional

Row | SMILES | Activity [1] | Activity [2] | Activity (Homo sapiens)
1 | COc1cc2c(c(OC)c1OC)-c1ccc(OC)c(=O)cc1[C@@H](NC=O)CC2 | Non-Toxic | Non-Toxic | –
2 | COC1=C[C@@H]2C3=C([C@@H]2C1=O)[C@@H](NC=O)CCc1cc(OC)c(OC)c(OC)c13 | Non-Toxic | Non-Toxic | –
3 | COc1cc2c(c(OC)c1OC)-c1ccc(OC)c(=O)cc1[C@@H](NC(C)=O)CC2 [COLCHICINE] | Non-Toxic | Non-Toxic | –
4 | COC1=C[C@@H]2C3=C([C@@H]2C1=O)[C@@H](NC(C)=O)CCc1cc(OC)c(OC)c(OC)c13 | Non-Toxic | Non-Toxic | –
5 | COC1=C[C@@H]2C3=C([C@@H]2C1=O)[C@@H](NC(C)=O)CCc1cc(OC)c(O)c(OC)c13 | Non-Toxic | Non-Toxic | –
6 | CC[C@H]1C[N@+]2(O)CCc3cc(O)c(OC)cc3[C@@H]2C[C@@H]1C[C@@H]1NCCc2c1[nH]c1ccc(O)cc21.O=C(O)C(F)(F)F.O=C([O-])C(F)(F)F | Non-Toxic | Non-Toxic | Active
7 | COC1=C[C@@H]2C3=C([C@@H]2C1=O)[C@@H](NC(C)=O)CCc1cc(O[C@@H]2O[C@H](CO)[C@@H](O)[C@H](O)[C@H]2O)c(O)c(OC)c13 | Non-Toxic | Non-Toxic | –
8 | COC1=C[C@@H]2C3=C([C@@H]2C1=O)[C@@H](NC=O)CCc1cc(OC)c(O)c(OC)c13 | Non-Toxic | Non-Toxic | –
9 | CC[C@H]1C[N@+]2(O)CCc3cc(OC)c(OC)cc3[C@@H]2C[C@@H]1C[C@@H]1NCCc2c1[nH]c1ccc(O)cc21.O=C(O)C(F)(F)F.O=C([O-])C(F)(F)F | Non-Toxic | Non-Toxic | Active
10 | CC[C@H]1CN2CCc3cc(O)c(OC)cc3[C@@H]2C[C@@H]1C[C@@H]1NCCc2c1[nH]c1ccc(O)cc21.O=C(O)C(F)(F)F.O=C(O)C(F)(F)F | Non-Toxic | Non-Toxic | Active
11 | COc1cc2c(c(OC)c1O)-c1ccc(OC)c(=O)cc1[C@@H](NC=O)CC2 | Non-Toxic | Non-Toxic | –
12 | COC1=C[C@H]2C3=C([C@H]2C1=O)[C@@H](NC(C)=O)CCc1cc(OC)c(O[C@@H]2O[C@H](CO)[C@@H](O)[C@H](O)[C@H]2O)c(OC)c13 | Non-Toxic | Non-Toxic | –
13 | CC[C@H]1C[N@@+]2(O)CCc3cc(O)c(OC)cc3[C@@H]2C[C@@H]1C[C@H]1NCCc2c1[nH]c1ccc(O)cc21.O=C(O)C(F)(F)F.O=C([O-])C(F)(F)F | Non-Toxic | Non-Toxic | Active
14 | COc1c2c(cc3c1-c1ccc(OC)c(=O)cc1[C@@H](NC(C)=O)CC3)OCO2 | Non-Toxic | Non-Toxic | –
15 | CC[C@H]1CN2CCc3cc(OC)c(OC)cc3[C@@H]2C[C@@H]1C[C@H]1NCCc2c1[nH]c1ccc(O)cc21.O=C(O)C(F)(F)F.O=C(O)C(F)(F)F | Non-Toxic | Non-Toxic | Active
16 | CC[C@H]1C[N@@+]2(O)CCc3cc(OC)c(OC)cc3[C@@H]2C[C@@H]1C[C@H]1NCCc2c1[nH]c1ccc(O)cc21.O=C(O)C(F)(F)F.O=C([O-])C(F)(F)F | Non-Toxic | Non-Toxic | Active
17 | COC1=C[C@@H]2C3=C([C@@H]2C1=O)[C@@H](NC(C)=O)CCc1cc(OC)c(O[C@@H]2O[C@H](CO)[C@@H](O)[C@H](O)[C@H]2O)c(OC)c13 | Non-Toxic | Non-Toxic | –
18 | CC[C@H]1CN2CCc3cc(OC)c(OC)cc3[C@@H]2C[C@@H]1C[C@@H]1NCCc2c1[nH]c1ccc(O)cc21.O=C(O)C(F)(F)F.O=C(O)C(F)(F)F | Non-Toxic | Non-Toxic | Active
19 | CC[C@H]1CN2CCc3cc(O)c(OC)cc3[C@@H]2C[C@@H]1C[C@H]1NCCc2c1[nH]c1ccccc21.O=C(O)C(F)(F)F.O=C(O)C(F)(F)F | Non-Toxic | Non-Toxic | Active
20 | COc1cc2c(c(OC)c1O)-c1ccc(OC)c(=O)cc1[C@@H](NC(C)=O)CC2 [2-DESMETHYLCOLCHICIN] | Non-Toxic | Non-Toxic | –
21 | CC[C@H]1CN2CCc3cc(O)c(OC)cc3[C@@H]2C[C@@H]1C[C@H]1NCCc2c1[nH]c1ccc(O)cc21.O=C(O)C(F)(F)F.O=C(O)C(F)(F)F | Non-Toxic | Non-Toxic | Active
22 | COC1=C[C@@H]2C3=C([C@@H]2C1=O)[C@@H](NC=O)CCc1cc(OC)c(O[C@@H]2O[C@H](CO)[C@@H](O)[C@H](O)[C@H]2O)c(OC)c13 | Non-Toxic | Non-Toxic | –
